Experimental data published in PubChem BioAssay AID248 (DTP/NCI, 2004).
Values joined by “and” are separate entries in the source; they are usually repeats but may differ in a detail not shown here. Equal entries are not always repeated. Inconclusive results and toxic doses are left out. Cut-off read from the data, not from the text of the source: active = T/C of 150% or more; inactive = T/C below 125%.

System: L1210 leukemia ip in BDF1 mice, survival T/C
Test: NCI In Vivo Anticancer Drug Screen. Data for tumor model L1210 Leukemia (intraperitoneal) in B6D2F1 (BDF1) mice
Details: endpoint: mean survival time, higher = longer survival
Summary of the method: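 Survival endpoint. Drug-treated group vs vehicle group, expressed as T divided by C. Tumor passaged by transplantation.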

[1] = dose: 100.0 mg/kg/injection, schedule: Q01DX009 (ip), vehicle: Klucel (hydroxypropylcellulose) (HPC)
[2] = dose: 100.0 mg/kg/injection, schedule: Q04DX003 (ip), vehicle: Klucel (hydroxypropylcellulose) (HPC)
[3] = dose: 200.0 mg/kg/injection, schedule: Q04DX003 (ip), vehicle: Klucel (hydroxypropylcellulose) (HPC)
[4] = dose: 400.0 mg/kg/injection, schedule: Q01DX009 (ip), vehicle: Klucel (hydroxypropylcellulose) (HPC)
[5] = dose: 400.0 mg/kg/injection, schedule: Q04DX003 (ip), vehicle: Klucel (hydroxypropylcellulose) (HPC)
[6] = dose: 200.0 mg/kg/injection, schedule: Q01DX009 (ip), vehicle: Klucel (hydroxypropylcellulose) (HPC)
[7] = dose: 100.0 mg/kg/injection, schedule: Q01DX001 (ip), vehicle: saline
[8] = dose: 200.0 mg/kg/injection, schedule: Q01DX001 (ip), vehicle: saline
[9] = dose: 400.0 mg/kg/injection, schedule: Q01DX001 (ip), vehicle: saline

Measured: T/C

COC[P+](c1ccccc1)(c1ccccc1)c1ccccc1
inactive: dose: 1.25 mg/kg/injection, schedule: Q01DX001 (ip), vehicle: Klucel (hydroxypropylcellulose) (HPC) 96 % of control | dose: 1.25 mg/kg/injection, schedule: Q01DX009 (ip), vehicle: Klucel (hydroxypropylcellulose) (HPC) 90 % of control | dose: 2.5 mg/kg/injection, schedule: Q01DX001 (ip), vehicle: Klucel (hydroxypropylcellulose) (HPC) 105 % of control | dose: 2.5 mg/kg/injection, schedule: Q01DX009 (ip), vehicle: Klucel (hydroxypropylcellulose) (HPC) 92 % of control | dose: 5.0 mg/kg/injection, schedule: Q01DX001 (ip), vehicle: Klucel (hydroxypropylcellulose) (HPC) 97 % of control | dose: 5.0 mg/kg/injection, schedule: Q01DX009 (ip), vehicle: Klucel (hydroxypropylcellulose) (HPC) 96 % of control | dose: 10.0 mg/kg/injection, schedule: Q01DX001 (ip), vehicle: Klucel (hydroxypropylcellulose) (HPC) 100 % of control | dose: 10.0 mg/kg/injection, schedule: Q01DX009 (ip), vehicle: Klucel (hydroxypropylcellulose) (HPC) 113 % of control

CC(=O)Nc1ccc(OC(=O)Nc2ccccc2Cl)cc1
inactive: [1] 101 % of control | [2] 96 % of control | [3] 95 % of control | [4] 101 % of control | [5] 95 % of control

O=[N+]([O-])c1cc([N+](=O)[O-])c(/C=C/c2ccccc2)c([N+](=O)[O-])c1/C=C/c1ccccc1
inactive: [1] 104 % of control | [2] 97 % of control | [6] 98 % of control | [3] 101 % of control | [4] 98 % of control | [5] 97 % of control

O=C(OCCCCOC(=O)c1cccc([N+](=O)[O-])c1)c1cccc([N+](=O)[O-])c1
inactive: dose: 3.12 mg/kg/injection, schedule: Q01DX009 (ip), vehicle: saline with Tween-80 95 % of control | dose: 6.25 mg/kg/injection, schedule: Q01DX009 (ip), vehicle: saline with Tween-80 100 % of control | dose: 12.5 mg/kg/injection, schedule: Q01DX009 (ip), vehicle: saline with Tween-80 97 % of control | dose: 100.0 mg/kg/injection, schedule: Q01DX001 (ip), vehicle: other 102 % of control | dose: 200.0 mg/kg/injection, schedule: Q01DX001 (ip), vehicle: other 95 % of control | dose: 400.0 mg/kg/injection, schedule: Q01DX001 (ip), vehicle: other 93 % of control

NC1CCCCC1I (centres undefined)
inactive: dose: 75.0 mg/kg/injection, schedule: Q01DX001 (ip), vehicle: acetone 94 % of control | dose: 150.0 mg/kg/injection, schedule: Q01DX001 (ip), vehicle: acetone 104 % of control

COc1cc([N+](=O)[O-])ccc1NC(=O)N(Cc1ccccc1)c1ccccc1
inactive: [1] 98 % of control | [6] 93 % of control | [4] 91 % of control

CC1(C)C/C(=C\c2ccc(Br)cc2)C(=O)c2ccccc21
inactive: [1] 98 % of control | [2] 106 % of control | [6] 95 % of control | [3] 106 % of control | [4] 101 % of control | [5] 104 % of control

C=CCON(CC=C)CC=C
inactive: dose: 100.0 mg/kg/injection, schedule: Q04DX002 (ip), vehicle: Klucel (hydroxypropylcellulose) (HPC) 102 % of control | dose: 200.0 mg/kg/injection, schedule: Q04DX002 (ip), vehicle: Klucel (hydroxypropylcellulose) (HPC) 102 % of control | dose: 400.0 mg/kg/injection, schedule: Q04DX002 (ip), vehicle: Klucel (hydroxypropylcellulose) (HPC) 94 % of control

CC(C)(C)S/C=C/C(N)=O
inactive: dose: 50.0 mg/kg/injection, schedule: Q01DX009 (ip), vehicle: saline 98 % of control | [7] 91 % of control | dose: 100.0 mg/kg/injection, schedule: Q01DX009 (ip), vehicle: saline 96 % of control | [8] 93 % of control | dose: 200.0 mg/kg/injection, schedule: Q01DX009 (ip), vehicle: saline 94 % of control

O=C(OCCO)c1ccc(O)cc1
inactive: [7] 88 % of control | [8] 93 % of control | [9] 88 % of control

CC(C)(C)OC(=O)N1CCCC1C(=O)O (centres undefined)
inactive: dose: 100.0 mg/kg/injection, schedule: Q01DX001 (ip), vehicle: carboxymethylcellulose (CMC) 109 % of control | dose: 200.0 mg/kg/injection, schedule: Q01DX001 (ip), vehicle: carboxymethylcellulose (CMC) 104 % of control | dose: 400.0 mg/kg/injection, schedule: Q01DX001 (ip), vehicle: carboxymethylcellulose (CMC) 95 % of control

CN1CCN(C(=S)Nc2ccccc2)CC1
inactive: dose: 25.0 mg/kg/injection, schedule: Q01DX001 (ip), vehicle: Klucel (hydroxypropylcellulose) (HPC) 98 % of control | dose: 50.0 mg/kg/injection, schedule: Q01DX001 (ip), vehicle: Klucel (hydroxypropylcellulose) (HPC) 106 % of control | dose: 100.0 mg/kg/injection, schedule: Q01DX001 (ip), vehicle: Klucel (hydroxypropylcellulose) (HPC) 97 % of control and 107 % of control

BrC1C2CC3C1C3C2c1ccccc1 (centres undefined)
inactive: [1] 117 % of control | [2] 103 % of control | [6] 109 % of control | [3] 107 % of control | [4] 107 % of control | [5] 103 % of control

CC(C)CCOC(=O)C(O)c1ccccc1 (centres undefined)
inactive: [1] 98 % of control | [2] 100 % of control | [6] 92 % of control | [3] 88 % of control | [4] 95 % of control | [5] 91 % of control

CC1C[N+](C)(C)CC(C)C1=O (centres undefined)
inactive: dose: 12.5 mg/kg/injection, schedule: Q04DX002 (ip), vehicle: saline with Tween-80 96 % of control | dose: 25.0 mg/kg/injection, schedule: Q04DX002 (ip), vehicle: saline with Tween-80 107 % of control | dose: 50.0 mg/kg/injection, schedule: Q04DX002 (ip), vehicle: saline with Tween-80 93 % of control

Cn1cnccc1=S
inactive: dose: 25.0 mg/kg/injection, schedule: Q01DX001 (ip), vehicle: saline 96 % of control | dose: 50.0 mg/kg/injection, schedule: Q01DX001 (ip), vehicle: saline 108 % of control

CNc1ccccc1C(=O)NNS(=O)(=O)c1ccc(C)cc1
inactive: [7] 102 % of control | [8] 102 % of control | [9] 90 % of control

O=C(Nc1ccc(OCc2ccccc2)cc1)c1ccc([N+](=O)[O-])s1
inactive: dose: 400.0 mg/kg/injection, schedule: Q01DX005 (ip), vehicle: water 89 % of control
